Measured values: US6833372B2, “Non-peptide GnRH agents, Pharmaceutical compositions, and methods for their use” (Pfizer, Inc., priority 2002, dated 2004)
Converted amounts (≈) assume the structure as drawn. Read-outs that look alike come from different tables or passages of the source.

Assays:
[1] = In vitro metabolism: disappearance of parent compound in human liver microsomes; type: in vitro ADME; conditions: 5 uM compound, 0.5 mg/ml protein, 2 mM NADPH, 30 minutes 37° C.
Method: (§1) Human, rat, dog, and monkey liver microsomes were isolated by differential centrifugation. Specimens of human liver were obtained from the International Institute for the Advancement of Medicine (Scranton, Pa.). The disappearance of the parent compound was studied in a mixture containing 5 uM compound, 0.5 mg/ml microsomal protein, and 2 mM NADPH in 50 mM K phosphate buffer, pH 7.4. Samples were incubated for 30 minutes at 37° C. The reaction was terminated by the addition of acetonitrile and compounds analyzed by LC-MS as described above.

[2] = In vitro metabolism: disappearance of parent compound in monkey liver microsomes; type: in vitro ADME; conditions: 5 uM compound, 30 minutes 37° C.
Method: as §1

[3] = In vitro metabolism: disappearance of parent compound in dog liver microsomes; type: in vitro ADME; conditions: 5 uM compound, 30 minutes 37° C.
Method: as §1

[4] = Solubility at pH2 and pH6; type: physicochemical
[5] = In vitro metabolism: disappearance of parent compound in rat liver microsomes (male, female); type: in vitro ADME; conditions: 5 uM compound, 30 minutes 37° C.; for Fem. Rat (FR) % rem. 30′: female rat liver microsomes; for Male Rat (MR) % rem. 30′: male rat liver microsomes
Method: as §1

rat GnRH receptor = target: T1, rat GnRH receptor (Rattus norvegicus, UniProt P30969); assay: Radioligand binding: inhibition of 125I-GnRH-A binding to rat GnRH receptor (rat pituitary membranes); conditions: read-out: Ki (nM), Inhibition Binding of 125I-GnRH-A to GnRH Receptors
T1 construct: or rat pituitaries (Pel Freez Biologicals, Rogers, Ark.) were homogenized; tissue Pel Freez Biologicals; host or cells: rat pituitaries (membrane preparation)
T1 sequence (P30969 1-327): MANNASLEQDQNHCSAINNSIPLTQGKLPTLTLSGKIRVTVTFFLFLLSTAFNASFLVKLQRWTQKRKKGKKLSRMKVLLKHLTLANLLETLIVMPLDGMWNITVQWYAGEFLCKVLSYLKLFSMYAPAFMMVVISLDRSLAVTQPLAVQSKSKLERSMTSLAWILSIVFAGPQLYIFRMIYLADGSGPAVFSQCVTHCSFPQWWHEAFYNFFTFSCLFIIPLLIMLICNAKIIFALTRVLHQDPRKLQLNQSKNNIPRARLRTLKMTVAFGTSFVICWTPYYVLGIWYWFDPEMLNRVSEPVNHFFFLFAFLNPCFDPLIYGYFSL
Outline: (§2)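 Membranes from rat pituitaries, or HEK 293 cells stably expressing mouse or human receptor, incubated 1 hour at room temperature with ~0.04-0.06 nM radioligand (HEPES pH 7.4, EDTA, MgCl2, BSA) and competitor at 0.1-10,000 nM. Bound ligand collected by GF/C filtration and counted; Ki derived from IC50 by Cheng-Prusoff.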

human GnRH receptors = target: T2, human GnRH receptors (Homo sapiens, UniProt P30968); assay: Radioligand binding: inhibition of 125I-GnRH-A binding to human GnRH receptor membranes; conditions: HEK 293 cell membranes
T2 construct: expressed in transfected cells; host or cells: HEK 293 cells, stably transfected; membranes
T2 sequence (P30968 1-328): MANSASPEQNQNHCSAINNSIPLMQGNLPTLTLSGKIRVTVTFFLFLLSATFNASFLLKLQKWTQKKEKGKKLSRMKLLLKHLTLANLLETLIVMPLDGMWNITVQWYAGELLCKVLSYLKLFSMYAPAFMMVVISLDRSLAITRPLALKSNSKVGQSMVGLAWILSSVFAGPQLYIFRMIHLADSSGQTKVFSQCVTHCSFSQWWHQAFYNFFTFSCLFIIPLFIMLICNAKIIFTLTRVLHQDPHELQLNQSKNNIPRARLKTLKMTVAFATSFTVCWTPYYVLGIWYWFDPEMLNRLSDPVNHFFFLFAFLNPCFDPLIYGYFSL
Outline: as §2

[6] = Pharmacokinetics in rats (jugular vein cannula, plasma LC-MS); type: in vivo, Rat; conditions: female rat, 10 mg/kg as 5 mg/ml solution in 10% DMSO, 10% cremophor, 80% saline (footnote 5), 10 mg/kg; for Cmax: read-out: FR Cmax
Method: Rats (male or female, 200-225 g) were prepared with indwelling jugular vein cannula as described by Harms et al., Applied Physiol. 36:391-398 (1974), and allowed to recover overnight with free access to the standard vivarium chow and water. […] […] The blood samples were withdrawn at specific times, plasma was immediately separated and compound extracted with ethyl acetate. The samples were analyzed by LC-MS using 30-90% gradient of ACN in 50 mM ammonium acetate.
The pharmacokinetic parameters were calculated using WinNonlin software (Scientific Consulting Inc.). The bioavailability was calculated as AUCp.o./AUCi.v., where AUCp.o. and AUC i.v. are areas under the plasma concentration-time curve after oral and i.v. administration, respectively.

Rat plasma % remain = type: in vitro ADME
[7] = pH 6, aqueous buffer, pH6, read-out: Solubility μg/ml pH6

COc1nc(NCCCN2CCOCC2)nc(OC)c1NC(=O)c1ccc(Cc2cc3c(cc2C)C(C)(C)CCC3(C)C)o1 [Example B4, 5-(3,5,5,8,8-Pentamethyl-5,6,7,8-tetrahydro-naphthalen-2-ylmethyl)-furan-2-carboxylic Acid [4,6-dimethoxy-2-(3-morpholin-4-yl-propylamino)-pyrimidin-5-yl]-amide]
Human % rem. 30′ [1]: 38% | Monkey % rem. [2]: 0% | Dog % rem. 30′ [3]: 26% | solubility [4, 7]: 2.5 µg/mL (≈ 4.13 µM) | Fem. Rat (FR) % rem. 30′ [5]: 100% | Male Rat (MR) % rem. 30′ [5]: 38% | Ki (rat GnRH receptor): 0.4 nM | Ki (human GnRH receptors): 0.5 nM

COc1nc(NCCCN2CCOCC2)nc(OC)c1NC(=O)c1ccc(Cc2cc3c(cc2C)C(C)(C)OC3(C)C)o1 [Example D3, 5-(1,1,3,3,6-Pentamethyl-1,3-dihydro-isobenzofuran-5-ylmethyl)-furan-2-carboxylic Acid [4,6-dimethoxy-2-(3-morpholin-4-yl-propylamino)-pyrimidin-5-yl]-amide]
Male Rat (MR) % rem. 30′ [5]: 22% | FR T1/2 hr [6]: 2.3 h | Cmax [6]: 200 nM | Cmax ([6]; female, rat, plasma, po): 400 nM | half-life ([6]; female, rat, plasma, po, read-out: FR T1/2 hr (converted)): 1.6 h | Ki (rat GnRH receptor): 0.4 nM | Rat plasma % remain (Rat plasma % remain): 100% | Ki (human GnRH receptors): 24.5 nM

COc1nc(NCCNCCN)nc(OC)c1NC(=O)c1ccc(Cc2cc3c(cc2C)C(C)(C)OC3(C)C)o1 [Example D12, N-[2-({2-[(2-aminoethyl)amino]ethyl}amino)-4,6-dimethoxypyrimidin-5-yl]-5-[(1,1,3,3,6-pentamethyl-1,3-dihydro-2-benzofuran-5-yl)methyl]-2-furamide]
Human % rem. 30′ [1]: 81% | Monkey % rem. [2]: 37% | Dog % rem. 30′ [3]: 59% | solubility ([4]; pH 2, simulated gastric fluid, pH2, read-out: Solubility μg/ml pH2): > 30 µg/mL | solubility [4, 7]: > 30 µg/mL | Fem. Rat (FR) % rem. 30′ [5]: 80% | Male Rat (MR) % rem. 30′ [5]: 54% | Ki (rat GnRH receptor): 0.8 nM | Ki (human GnRH receptors): 1.2 nM

COc1nc(NCCN2CCNCC2)nc(OC)c1NC(=O)c1ccc(Cc2cc3c(cc2C)C(C)(C)OC3(C)C)o1 [Example D14, N-{4,6-Dimethoxy-2-[(2-piperazin-1-ylethyl)amino]-pyrimidin-5-yl}-5-[(1,1,3,3,6-pentamethyl-1,3-dihydro-2-benzofuran-5-yl)methyl]-2-furamide]
Human % rem. 30′ [1]: 86% | Monkey % rem. [2]: 63% | Dog % rem. 30′ [3]: 98% | Fem. Rat (FR) % rem. 30′ [5]: 90% | Male Rat (MR) % rem. 30′ [5]: 78% | Ki (rat GnRH receptor): 0.4 nM | Ki (human GnRH receptors): 3.5 nM

COc1nc(N(CCCN)CCCN)nc(OC)c1NC(=O)c1ccc(Cc2cc3c(cc2C)C(C)(C)OC3(C)C)o1 [Example D16, N-{2-[Bis(3-aminopropyl)amino]-4,6-dimethoxypyrimidin-5-yl}-5-[(1,1,3,3,6-pentamethyl-1,3-dihydro-2-benzofuran-5-yl)methyl]-2-furamide]
Human % rem. 30′ [1]: 76% | Monkey % rem. [2]: 66% | Dog % rem. 30′ [3]: 97% | Fem. Rat (FR) % rem. 30′ [5]: 95% | Male Rat (MR) % rem. 30′ [5]: 34% | Ki (rat GnRH receptor): 1.1 nM | Ki (human GnRH receptors): 6.5 nM

COc1nc(NCCCN2CCN(CCCN)CC2)nc(OC)c1NC(=O)c1ccc(Cc2cc3c(cc2C)C(C)(C)OC3(C)C)o1 [Example D18, N-[2-({3-[4-(3-Aminopropyl)piperazin-1-yl]propyl}amino)-4,6-dimethoxypyrimidin-5-yl}-5-[(1,1,3,3,6-pentamethyl-1,3-dihydro-2-benzofuran-5-yl)methyl]-2-furamide]
Human % rem. 30′ [1]: 82% | Monkey % rem. [2]: 80% | Dog % rem. 30′ [3]: 84% | Fem. Rat (FR) % rem. 30′ [5]: 97% | Male Rat (MR) % rem. 30′ [5]: 74% | Ki (rat GnRH receptor): 0.3 nM | Ki (human GnRH receptors): 0.97 nM

COc1nc(N(CCCN2CCCCC2)CCCN2CCCCC2)nc(OC)c1NC(=O)c1ccc(Cc2cc3c(cc2C)C(C)(C)OC3(C)C)o1 [Example D21, N-{2-[Bis(3-piperidin-1-ylpropyl)amino]-4,6-dimethoxypyrimidin-5-yl}-5-[(1,1,3,3,6-pentamethyl-1,3-dihydro-2-benzofuran-5-yl)methyl]-2-furamide]
Human % rem. 30′ [1]: 89% | Monkey % rem. [2]: 85% | Dog % rem. 30′ [3]: 67% | Fem. Rat (FR) % rem. 30′ [5]: 89% | Male Rat (MR) % rem. 30′ [5]: 87% | Ki (rat GnRH receptor): 1.3 nM | Ki (human GnRH receptors): 3.3 nM

COc1nc(NCCCN2CCCCC2)nc(OC)c1NC(=O)c1ccc(Cc2cc3c(cc2C)C(C)(C)OC3(C)C)o1 [Example D22, N-(4,6-Dimethoxy-2-{[3-piperidin-1-ylpropyl)amino]-pyrimidin-5-yl}-5-[(1,1,3,3,6-pentamethyl-1,3-dihydro-2-benzofuran-5-yl)methyl]-2-furamide]
Human % rem. 30′ [1]: 66% | Monkey % rem. [2]: 5% | Dog % rem. 30′ [3]: 87% | Fem. Rat (FR) % rem. 30′ [5]: 94% | Male Rat (MR) % rem. 30′ [5]: 69% | Ki (rat GnRH receptor): 0.3 nM | Ki (human GnRH receptors): 0.96 nM

COCCOc1nc(OC)c(NC(=O)c2ccc(Cc3cc4c(cc3C)CCCC4(C)C)o2)c(OC)n1 [Example E1, 5-(3,8,8-Trimethyl-5,6,7,8-tetrahydro-naphthalen-2-ylmethyl)-furan-2-carboxylic acid [4,6-dimethoxy-2-(2-methoxy-ethoxy)-pyrimidin-5-yl]-amide]
Human % rem. 30′ [1]: 48% | Monkey % rem. [2]: 0% | Dog % rem. 30′ [3]: 28% | solubility [4, 7]: 2 µg/mL (≈ 3.92 µM) | Fem. Rat (FR) % rem. 30′ [5]: 76% | Male Rat (MR) % rem. 30′ [5]: 12% | Ki (rat GnRH receptor): 7 nM | Ki (human GnRH receptors): 3.4 nM

COc1nc(NCCCN2CCOCC2)nc(OC)c1NC(=O)c1ccc(Cc2cc3c(cc2C)CCCC3(C)C)o1 [Example F1, 5-(3,8,8-Trimethyl-5,6,7,8-tetrahydro-naphthalen-2-ylmethyl)-furan-2-carboxylic acid [4,6-dimethoxy-2-(3-morpholin-4-yl-propylamino)-pyrimidin-5-yl]-amide]
Human % rem. 30′ [1]: 39% | Monkey % rem. [2]: 0% | Dog % rem. 30′ [3]: 31% | solubility [4, 7]: 12 µg/mL (≈ 20.8 µM) | Fem. Rat (FR) % rem. 30′ [5]: 81% | Male Rat (MR) % rem. 30′ [5]: 36% | Ki (rat GnRH receptor): 0.35 nM | Ki (human GnRH receptors): 0.91 nM

COc1nc(NCCC#N)nc(OC)c1NC(=O)c1ccc(Cc2cc3c(cc2C)CCCC3(C)C)o1 [Example F2, 5-(3,8,8-Trimethyl-5,6,7,8-tetrahydro-naphthalen-2-ylmethyl)-furan-2-carboxylic acid [2-(2-cyano-ethylamino)-4,6-dimethoxy-pyrimidin-5-yl]-amide]
Human % rem. 30′ [1]: 70% | Monkey % rem. [2]: 2% | Dog % rem. 30′ [3]: 85% | Fem. Rat (FR) % rem. 30′ [5]: 100% | Male Rat (MR) % rem. 30′ [5]: 74% | Ki (rat GnRH receptor): 1.7 nM | Rat plasma % remain (Rat plasma % remain): 100% | Ki (human GnRH receptors): 1.3 nM
